Values quoted from earlier work, collected in patent US9382233B2, “Forms of vilazodone and processes for the preparation thereof” (APOTEX INC., priority 2012, dated 2016).

Conditions: benzyl alcohol and its equivalents (benzoic acid, benzoate salts, benzaldehyde, benzyl acetate and benzyl benzoate); World Health Organization (JECFA, 2001)

acceptable daily intake (ADI): 5 mg/kg
SMILES: OCc1ccccc1 [benzyl alcohol]
